Laboratory results taken from patent US5476848A, “14B(R) isomers of novel tetracyclic compounds having anti-allergic and anti-asthmatic activities, and their use” (Sankyo Company, Limited, priority 1989, dated 1995).
Where a name gives a salt, the structure may show the parent alone.

Legend:
eosinophil accumulation = assay: Inhibitory effect on antigen induced eosinophil accumulation (Test Example 4); type: in vivo, guinea pig (male Hartley); conditions: po, 1 hr before antigen challenge, BALF 24 hr after; for Inhibitory effect (%) on accumulation of eosinophil: 0.1 mg/kg; for inhibition at 0.1 mg/kg: Cavia porcellus, Eosinophil;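 on all read-outs here: oral dose 0.1 mg/kg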
Method: Male Hartley guinea pigs weighing approximately 400 g were sensitized with ovalbumin by the method described by Engineer et al. (Engineer, D. M. et al., J. Pharmacol., 62, 61-66 (1978)), and the number of eosinophils infiltrating into the bronchoalveolar space due to antigen challenge was examined.
Briefly, the animals were exposed to the antigen (ovalbumin) for 6 min. At 24 hr. after antigen challenge, the guinea pigs were anesthetized with pentobarbital (30 mg/kg, i.p.). The trachea was cannulated by a disposable intravenous catheter, and the airway lumen (especially in the right posterior lobe) was washed with 0.9% saline (10 ml/kg) kept at 37° C. The bronchoalveolar lavage fluid (BALF) from each animal was centrifuged (150 g for 10 min at 4° C.). After removing the supernatant, the cell pellet was resuspended in HBSS (Hank's balanced solution) and a total cell count was performed using a standard hemocytometer. Differential cell counts were done on smears fixed in methanol and stained with Wright-Giemsa solution, and by light microscopy under oil immersion (×1000). The proportion of eosinophil population was expressed as a percentage of total cells, and this ratio together with the total cell count was used to calculate the total number of eosinophils. The percent inhibition of the test compounds which was administered 1 hr before antigen challenge, was calculated as follows:
Percent inhibition=[1-(C-A)/(B-A)]×100
A: negative control: mean value of cell counts in BALF from the animals with inhaled saline
B: positive control: mean value of cell counts in BALF from the animals 24 h after antigen challenge
C: cell counts of BALF for the animals pretreated with a test compound 24 h after antigen challenge

eosinophil chemotaxis = assay: Inhibitory effect of eosinophil chemotaxis to zymosan-activated serum (Test Example 4); type: cell-based, guinea pig; conditions: for Inhibitory effect (%) on chemotaxis of eosinophil / inhibition at 0.1 µg/mL: 0.1 μg/ml, ZAS; for inhibition at 0.1 µg/mL: Cavia porcellus, Eosinophil; for potency of the R-isomer relative to the racemate: eosinophil table, R-isomer vs racemate
Text: Eosinophils were harvested from the peritoneal cavity of polymyxin B-treated guinea pigs (body weight, approx. 400 g) according to the method described by Pincus (Pincus, S. H. et al.: Blood, 52, 127-134 (1978)). The eosinophils were separated and purified by Ficoll-paque (Pharmacia) density gradient centrifugation. Then, the eosinophil chemotaxis to zymosan-activated serum (ZAS) was investigated by a modification of the Boyden micropore filter technique (Gosset, P. et al.: Clin. Exp. Immunol., 65, 654-663 (1986)). Briefly, the assay was carried out in a 48-well microchemotaxis assembly (Neuroprobe; Cabin John, Md., U.S.A.). Cell suspensions were adjusted to 2.5×10^5 /50 μl, and placed in the upper chamber separated from the chemoattractant (ZAS) solution in the lower chamber by a 3 μm pore size polycarbonate membrane filter (Nucleopore Co., Pleasanton, U.S.A.). The cells were incubated for 10 min at 37° C. with the test compounds, prior to their addition to the chemotaxis chamber. Migration was carried out at 37° C. in humidified air with 5% CO2 for 2 h. After the incubation, the migrated eosinophils in the lower Chamber were counted by a hemocytometer.
The percentage inhibition obtained with the test compound was calculated by comparison to the positive control (migration of non-treated cells in response to the ZAS), according to the formula:
Percent inhibition=[1-(A/B)]×100
A: (migration with a test compound)-(spontaneous migration)
B: (positive control migration)-(spontaneous migration)

[1] = tested on: Antigen-induced Bronchoconstriction; assay: Effect on antigen-induced bronchoconstriction in sensitized guinea pigs (Test Example 2); type: in vivo, guinea pig (male Hartley); conditions: Cavia porcellus, po, 60 min before challenge, read-out: Inhibitory rate
Method: The test animals used were male guinea pigs of the Hartley strain (weighing about 400 to 500 g). These animals were sensitized according to Morris' method [H. R. Morris; Br. J. Pharmac., 67, 179-184 (1979)]. The guinea pigs were subcutaneously and intraperitoneally injected twice, each time with 25 mg of egg albumin (grade 5, Sigma) at weekly intervals. 7 days after the second of these weekly injections, the animals were fasted for one day and then exposed to an aerosol of egg albumin (10 mg/ml). All of the animals so exposed responded with convulsions, indicating respiratory distress due to airway constriction, within 6 minutes.
60 minutes before the egg albumin challenge, one of the test compounds shown in the following Table 5 was administered orally to each of the animals.

[2] = tested on: Passive Cutaneous Anaphylaxis (PCA); assay: Inhibitory effect on passive cutaneous anaphylaxis (PCA) in rats (Test Example 1); type: in vivo, rat (male SD); conditions: Rattus norvegicus, po, read-out: Inhibitory rate
Method: Male SD rats (5 weeks old) were used as the test animals in groups, each containing 4 animals. The rats were sensitized by intradermal injection of 0.05 ml of the diluted antiserum solution in the dorsal position. 48 hours after this injection, a suspension of the test compound in an aqueous 0.5% w/v tragacanth solution was orally administered to the rats, fasted for one day, and 60 minutes later they were injected in the caudal vein with 5 ml/kg body weight of physiological saline containing 0.4% w/v egg albumin and 1.0% w/v Evans Blue.
The inhibitory rate was calculated by the following equation.
Inhibitory rate (%)=(1-B/A)×100
A: amount of exuded dye in the control group
B: amount of exuded dye in the test group.

CCOC(=O)CCCN1CCN2c3ccccc3Cc3ccccc3C2C1 (racemic) [19 HCl racemate]
Inhibitory effect (%) on accumulation of eosinophil (eosinophil accumulation): 48%
Inhibitory effect (%) on chemotaxis of eosinophil (eosinophil chemotaxis): 5%

CCOC(=O)CCCN1CCN2c3ccccc3Cc3ccccc3C2C1 (racemic) [19 fumarate racemate]
Inhibitory effect (%) on accumulation of eosinophil (eosinophil accumulation): 24%
inhibition at 0.1 µg/mL (eosinophil chemotaxis): 3%

CCOC(=O)CCCCCN1CCN2c3ccccc3Cc3ccccc3C2C1 (racemic) [21 HCl racemate]
inhibition at 0.1 mg/kg (eosinophil accumulation): 37%
inhibition at 0.1 µg/mL (eosinophil chemotaxis): 23%

O=C(O)CCCN1CCN2c3ccccc3Cc3ccccc3C2C1 (racemic) [22 HCl racemate]
Inhibitory effect (%) on accumulation of eosinophil (eosinophil accumulation): 31%
Inhibitory effect (%) on chemotaxis of eosinophil (eosinophil chemotaxis): 6%

O=C(O)CCCN1CCN2c3ccccc3Cc3ccccc3C2C1 (racemic) [22 free racemate]
Inhibitory effect (%) on accumulation of eosinophil (eosinophil accumulation): 3%
inhibition at 0.1 µg/mL (eosinophil chemotaxis): 9%

O=C(O)CCCCCN1CCN2c3ccccc3Cc3ccccc3C2C1 (racemic) [24 HCl racemate]
inhibition at 0.1 mg/kg (eosinophil accumulation): 43%
inhibition at 0.1 µg/mL (eosinophil chemotaxis): 25%

CCOC(=O)CCCN1CCN2c3ccccc3Cc3ccccc3C2C1 (racemic) [Example 19, Ethyl 4-(1,2,3,4,10,14b-hexahydrodibenzo[c,f]pyrazino[1,2-a]azepin-2-yl)butanoate]
inhibition at 0.025 mg/kg [1]: 40%
inhibition at 0.4 mg/kg [1]: 100%
inhibition at 0.05 mg/kg [2]: 55%
inhibition at 0.2 mg/kg [2]: 61%

O=C(O)CCCCCN1CCN2c3ccccc3Cc3ccccc3C2C1 (racemic) [Example 24, 6-(1,2,3,4,10,14b-Hexahydrodibenzo[c,f]pyrazino[1,2-a]azepin-2-yl)hexanoic acid]
inhibition at 0.1 mg/kg [1]: 80%
inhibition at 0.4 mg/kg [1]: 100%
inhibition at 0.05 mg/kg [2]: 46%
inhibition at 3.1 mg/kg [2]: 74%

CCOC(=O)CCCN1CCN2c3ccccc3Cc3ccccc3[C@@H]2C1 [19 HCl R-isomer]
Inhibitory effect (%) on accumulation of eosinophil (eosinophil accumulation): 58%
Inhibitory effect (%) on chemotaxis of eosinophil (eosinophil chemotaxis): 43%

CCOC(=O)CCCN1CCN2c3ccccc3Cc3ccccc3[C@H]2C1 [19 HCl S-isomer]
Inhibitory effect (%) on accumulation of eosinophil (eosinophil accumulation): 41%
Inhibitory effect (%) on chemotaxis of eosinophil (eosinophil chemotaxis): 1%

CCOC(=O)CCCN1CCN2c3ccccc3Cc3ccccc3[C@@H]2C1 [19 fumarate R-isomer]
inhibition at 0.1 mg/kg (eosinophil accumulation): 62%
inhibition at 0.1 µg/mL (eosinophil chemotaxis): 55%

CCOC(=O)CCCN1CCN2c3ccccc3Cc3ccccc3[C@H]2C1 [19 fumarate S-isomer]
inhibition at 0.1 mg/kg (eosinophil accumulation): 32%
Inhibitory effect (%) on chemotaxis of eosinophil (eosinophil chemotaxis): 0%

CCOC(=O)CCCCCN1CCN2c3ccccc3Cc3ccccc3[C@@H]2C1 [21 HCl R-isomer]
inhibition at 0.1 mg/kg (eosinophil accumulation): 80%
inhibition at 0.1 µg/mL (eosinophil chemotaxis): 50%
potency of the R-isomer relative to the racemate (eosinophil chemotaxis): about double the potency

CCOC(=O)CCCCCN1CCN2c3ccccc3Cc3ccccc3[C@H]2C1 [21 HCl S-isomer]
inhibition at 0.1 mg/kg (eosinophil accumulation): 13%
inhibition at 0.1 µg/mL (eosinophil chemotaxis): 9%

O=C(O)CCCN1CCN2c3ccccc3Cc3ccccc3[C@H]2C1 [22 HCl S-isomer]
inhibition at 0.1 mg/kg (eosinophil accumulation): 47%
inhibition at 0.1 µg/mL (eosinophil chemotaxis): 5%

O=C(O)CCCCCN1CCN2c3ccccc3Cc3ccccc3[C@@H]2C1 [24 HCl R-isomer]
inhibition at 0.1 mg/kg (eosinophil accumulation): 62%
inhibition at 0.1 µg/mL (eosinophil chemotaxis): 47%
potency of the R-isomer relative to the racemate (eosinophil chemotaxis): about double the potency

O=C(O)CCCCCN1CCN2c3ccccc3Cc3ccccc3[C@H]2C1 [24 HCl S-isomer]
inhibition at 0.1 mg/kg (eosinophil accumulation): 2%
inhibition at 0.1 µg/mL (eosinophil chemotaxis): 0%

CCOC(=O)COCCN1CCN2c3ccccc3Cc3ccccc3C2C1 (centres unmarked) [Example 1]
inhibition at 0.025 mg/kg [1]: 20%
inhibition at 0.1 mg/kg [1]: 50%
inhibition at 0.2 mg/kg [2]: 56%
inhibition at 3.1 mg/kg [2]: 65%

O=C(O)COCCN1CCN2c3ccccc3Cc3ccccc3C2C1 (centres unmarked) [Example 2]
inhibition at 0.025 mg/kg [1]: 20%
inhibition at 0.1 mg/kg [1]: 80%
inhibition at 0.05 mg/kg [2]: 62%
inhibition at 0.8 mg/kg [2]: 74%

CCOC(=O)COCCN1CCN2c3ccc(Cl)cc3Cc3ccccc3C2C1 (centres unmarked) [Example 4]
inhibition at 3.1 mg/kg [2]: 63%

COC(=O)COCCN1CCN2c3ccc(Br)cc3Cc3ccccc3C2C1 (centres unmarked) [Example 5, Methyl 2-(8-bromo-1,2,3,4,10,14b-hexahydrodibenzo[c,f]pyrazino[1,2-a]azepin-2-yl)ethoxyacetate]
inhibition at 0.8 mg/kg [2]: 23%
inhibition at 3.1 mg/kg [2]: 67%

OCCOCCOCCN1CCN2c3ccccc3Cc3ccccc3C2C1 (centres unmarked) [Example 7]
inhibition at 0.4 mg/kg [1]: 100%
inhibition at 0.8 mg/kg [2]: 50%
inhibition at 3.1 mg/kg [2]: 57%
inhibition at 12.5 mg/kg ([2]; 12.5 mg/kg): 72%

O=C(O)COCCN1CCN2c3ccc(Cl)cc3Cc3ccccc3C2C1 (centres unmarked) [Example 9]
inhibition at 3.1 mg/kg [2]: 63%

O=C(O)COCCN1CCN2c3ccc(Br)cc3Cc3ccccc3C2C1 (centres unmarked) [Example 10]
inhibition at 3.1 mg/kg [2]: 53%

O=C(O)COCCN1CCN2c3ncccc3Cc3ccccc3C2C1 (centres unmarked) [Example 11, 2-(1,2,3,4,10,14b-Hexahydrobenzo[c]pyrazino[1,2-a]pyrido[5,6-c]azepin-2-yl)ethoxyacetic acid]
inhibition at 0.8 mg/kg [2]: 49%
inhibition at 3.1 mg/kg [2]: 60%

OCCCN1CCN2c3ccccc3Cc3ccccc3C2C1 (centres unmarked) [Example 16, 3-(1,2,3,4,10,14b-Hexahydrodibenzo[c,f]pyrazino[1,2-a]azepin-2-yl)propanol]
inhibition at 0.1 mg/kg [1]: 60%
inhibition at 0.4 mg/kg [1]: 100%
inhibition at 0.8 mg/kg [2]: 48%
inhibition at 3.1 mg/kg [2]: 63%

OCCCCCCN1CCN2c3ccccc3Cc3ccccc3C2C1 (centres unmarked) [Example 18, 6-(1,2,3,4,10,14b-Hexahydrodibenzo[c,f]pyrazino[1,2-a]azepin-2-yl)hexanol]
inhibition at 0.4 mg/kg [1]: 100%

CN(C)C(=O)COCCN1CCN2c3ccccc3Cc3ccccc3C2C1 (stereo not drawn) [Example 27, α-[2-(1,2,3,4,10,14b-Hexahydrodibenzo[c,f]pyrazino[1,2-a]azepin-2-yl)ethoxy]-N,N-dimethylacetamide]
inhibition at 3.1 mg/kg [2]: 69%

CCCN(CCC)C(=O)COCCN1CCN2c3ccccc3Cc3ccccc3C2C1 (stereo not drawn) [Example 31, α-[2-(1,2,3,4,10,14b-Hexahydrodibenzo[c,f]pyrazino[1,2-a]azepin-2-yl)ethoxy]-N,N-dipropylacetamide]
inhibition at 0.8 mg/kg [2]: 32%
inhibition at 3.1 mg/kg [2]: 76%

O=C(O)CN1CCN2c3ccccc3Cn3cccc3C2C1 (centres unmarked) [Prior art compound G, Sodium (1,3,4,14btetrahydro-2H,10H-pyrazino[1,2a]pyrrolo[2,1c][1,4]benzodiazepin-yl)acetate, reference compound]
inhibition at 3.1 mg/kg [2]: 28%
